Measured values published in ChEMBL document CHEMBL4825755 (J Med Chem, 2021).

What was measured:
[1] = Intrinsic clearance in Wistar Han rat liver microsomes at 0.5 uM measured up to 45 mins in presence of NADPH by LC-MS/MS analysis; type: ADME, Microsome; details: read-out: CLH
[2] = biological target: PI3-kinase p110-alpha/p85-alpha (Homo sapiens, UniProt P42336); assay: Inhibition of recombinant human N-terminal His6-tagged full length P110alpha/full length untagged human p85alpha expressed in baculovirus infected Sf21 insect cells using PIP2 as substrate preincubated for 15 mins followed by substrate addition and measured after 60 mins by HTRF assay
Sequence of PI3-kinase p110-alpha/p85-alpha (P27986 whole entry, canonical isoform): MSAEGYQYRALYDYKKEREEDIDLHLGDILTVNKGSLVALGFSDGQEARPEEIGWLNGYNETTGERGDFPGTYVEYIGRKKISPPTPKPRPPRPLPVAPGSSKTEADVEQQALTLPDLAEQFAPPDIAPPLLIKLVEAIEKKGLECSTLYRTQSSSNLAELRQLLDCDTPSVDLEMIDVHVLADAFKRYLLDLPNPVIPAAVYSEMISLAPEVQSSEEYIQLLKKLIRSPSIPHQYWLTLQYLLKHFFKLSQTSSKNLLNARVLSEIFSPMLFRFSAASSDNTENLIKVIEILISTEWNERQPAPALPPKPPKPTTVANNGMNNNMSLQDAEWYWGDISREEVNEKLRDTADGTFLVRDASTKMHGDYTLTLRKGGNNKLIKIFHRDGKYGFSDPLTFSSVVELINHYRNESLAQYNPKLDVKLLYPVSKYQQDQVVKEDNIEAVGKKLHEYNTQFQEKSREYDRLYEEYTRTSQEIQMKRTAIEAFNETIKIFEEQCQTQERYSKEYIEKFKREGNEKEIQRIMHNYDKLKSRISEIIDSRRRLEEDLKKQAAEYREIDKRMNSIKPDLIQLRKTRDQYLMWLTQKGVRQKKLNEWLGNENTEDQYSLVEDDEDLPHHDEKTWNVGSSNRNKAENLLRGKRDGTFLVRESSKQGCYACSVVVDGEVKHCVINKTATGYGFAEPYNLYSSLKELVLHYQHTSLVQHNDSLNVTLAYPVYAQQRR
Sequence of PI3-kinase p110-alpha/p85-alpha (P42336 whole entry, canonical isoform): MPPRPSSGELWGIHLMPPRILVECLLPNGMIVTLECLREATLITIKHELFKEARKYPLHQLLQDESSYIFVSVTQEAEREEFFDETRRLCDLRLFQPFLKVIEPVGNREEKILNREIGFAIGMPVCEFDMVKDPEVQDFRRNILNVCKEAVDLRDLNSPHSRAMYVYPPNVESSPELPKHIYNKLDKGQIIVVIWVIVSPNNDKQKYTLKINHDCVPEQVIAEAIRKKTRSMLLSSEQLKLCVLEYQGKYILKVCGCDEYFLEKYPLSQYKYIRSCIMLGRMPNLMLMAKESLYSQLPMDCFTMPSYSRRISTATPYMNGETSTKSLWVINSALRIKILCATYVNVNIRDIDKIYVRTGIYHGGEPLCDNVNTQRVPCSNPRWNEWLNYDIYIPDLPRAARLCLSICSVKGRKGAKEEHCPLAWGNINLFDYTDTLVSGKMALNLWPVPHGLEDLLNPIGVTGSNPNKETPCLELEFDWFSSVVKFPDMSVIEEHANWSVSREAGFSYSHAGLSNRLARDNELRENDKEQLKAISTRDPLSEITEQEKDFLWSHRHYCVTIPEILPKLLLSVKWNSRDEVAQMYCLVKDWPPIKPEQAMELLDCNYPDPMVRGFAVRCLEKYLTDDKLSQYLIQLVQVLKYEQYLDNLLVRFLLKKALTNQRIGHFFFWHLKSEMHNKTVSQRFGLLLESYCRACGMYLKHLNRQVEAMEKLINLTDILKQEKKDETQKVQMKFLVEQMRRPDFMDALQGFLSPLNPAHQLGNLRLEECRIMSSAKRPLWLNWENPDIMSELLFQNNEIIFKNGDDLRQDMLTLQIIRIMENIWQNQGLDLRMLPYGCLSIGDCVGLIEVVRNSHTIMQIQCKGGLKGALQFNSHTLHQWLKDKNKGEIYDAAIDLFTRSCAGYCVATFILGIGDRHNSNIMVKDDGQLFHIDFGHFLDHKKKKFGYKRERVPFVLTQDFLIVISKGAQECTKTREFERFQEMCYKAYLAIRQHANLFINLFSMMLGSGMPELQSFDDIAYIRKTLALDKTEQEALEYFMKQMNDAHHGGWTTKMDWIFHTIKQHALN

[3] = biological target: T1, Phosphatidylinositol 4,5-bisphosphate 3-kinase catalytic subunit delta isoform (Homo sapiens, UniProt O00329); assay: Inhibition of PI3Kdelta in human whole blood assessed as reduction in cytostim-stimulated IFNgamma production preincubated for 1 hr followed by cytostim stimulation and measured after 20 hrs by electrochemiluminescence assay
T1 sequence (O00329 whole entry): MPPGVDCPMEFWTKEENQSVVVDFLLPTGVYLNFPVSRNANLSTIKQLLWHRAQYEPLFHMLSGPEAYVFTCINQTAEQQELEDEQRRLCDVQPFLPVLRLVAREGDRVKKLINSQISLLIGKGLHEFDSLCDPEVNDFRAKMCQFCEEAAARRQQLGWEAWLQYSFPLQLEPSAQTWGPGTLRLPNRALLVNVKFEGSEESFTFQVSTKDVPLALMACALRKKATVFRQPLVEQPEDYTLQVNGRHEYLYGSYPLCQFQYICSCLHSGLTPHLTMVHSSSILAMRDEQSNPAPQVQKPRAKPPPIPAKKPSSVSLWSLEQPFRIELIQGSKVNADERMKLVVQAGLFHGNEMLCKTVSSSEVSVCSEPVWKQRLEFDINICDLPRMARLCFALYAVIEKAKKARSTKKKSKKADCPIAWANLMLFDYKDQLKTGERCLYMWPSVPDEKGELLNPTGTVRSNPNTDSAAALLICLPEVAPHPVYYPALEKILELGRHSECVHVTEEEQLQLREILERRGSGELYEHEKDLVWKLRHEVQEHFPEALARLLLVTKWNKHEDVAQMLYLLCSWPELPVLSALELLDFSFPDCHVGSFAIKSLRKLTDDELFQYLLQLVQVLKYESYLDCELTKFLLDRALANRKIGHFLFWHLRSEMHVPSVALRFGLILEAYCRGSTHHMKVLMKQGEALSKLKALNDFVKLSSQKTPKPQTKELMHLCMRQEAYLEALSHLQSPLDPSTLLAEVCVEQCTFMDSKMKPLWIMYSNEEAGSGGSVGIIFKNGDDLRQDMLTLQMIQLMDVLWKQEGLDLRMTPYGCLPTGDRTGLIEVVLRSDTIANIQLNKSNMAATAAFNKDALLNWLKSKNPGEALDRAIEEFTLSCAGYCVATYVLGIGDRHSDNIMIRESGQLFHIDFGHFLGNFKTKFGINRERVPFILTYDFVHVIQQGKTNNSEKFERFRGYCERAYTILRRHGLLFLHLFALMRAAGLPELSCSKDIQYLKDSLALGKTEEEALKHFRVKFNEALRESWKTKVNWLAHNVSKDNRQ

[4] = biological target: Phosphatidylinositol 4,5-bisphosphate 3-kinase catalytic subunit gamma isoform (Homo sapiens, UniProt P48736); assay: Inhibition of recombinant human N-terminal His6-tagged full length P120gamma expressed in baculovirus infected Sf21 insect cells using PIP2 as substrate preincubated for 15 mins followed by substrate addition and measured after 60 mins by HTRF assay
Sequence of Phosphatidylinositol 4,5-bisphosphate 3-kinase catalytic subunit gamma isoform (P48736 whole entry, canonical isoform): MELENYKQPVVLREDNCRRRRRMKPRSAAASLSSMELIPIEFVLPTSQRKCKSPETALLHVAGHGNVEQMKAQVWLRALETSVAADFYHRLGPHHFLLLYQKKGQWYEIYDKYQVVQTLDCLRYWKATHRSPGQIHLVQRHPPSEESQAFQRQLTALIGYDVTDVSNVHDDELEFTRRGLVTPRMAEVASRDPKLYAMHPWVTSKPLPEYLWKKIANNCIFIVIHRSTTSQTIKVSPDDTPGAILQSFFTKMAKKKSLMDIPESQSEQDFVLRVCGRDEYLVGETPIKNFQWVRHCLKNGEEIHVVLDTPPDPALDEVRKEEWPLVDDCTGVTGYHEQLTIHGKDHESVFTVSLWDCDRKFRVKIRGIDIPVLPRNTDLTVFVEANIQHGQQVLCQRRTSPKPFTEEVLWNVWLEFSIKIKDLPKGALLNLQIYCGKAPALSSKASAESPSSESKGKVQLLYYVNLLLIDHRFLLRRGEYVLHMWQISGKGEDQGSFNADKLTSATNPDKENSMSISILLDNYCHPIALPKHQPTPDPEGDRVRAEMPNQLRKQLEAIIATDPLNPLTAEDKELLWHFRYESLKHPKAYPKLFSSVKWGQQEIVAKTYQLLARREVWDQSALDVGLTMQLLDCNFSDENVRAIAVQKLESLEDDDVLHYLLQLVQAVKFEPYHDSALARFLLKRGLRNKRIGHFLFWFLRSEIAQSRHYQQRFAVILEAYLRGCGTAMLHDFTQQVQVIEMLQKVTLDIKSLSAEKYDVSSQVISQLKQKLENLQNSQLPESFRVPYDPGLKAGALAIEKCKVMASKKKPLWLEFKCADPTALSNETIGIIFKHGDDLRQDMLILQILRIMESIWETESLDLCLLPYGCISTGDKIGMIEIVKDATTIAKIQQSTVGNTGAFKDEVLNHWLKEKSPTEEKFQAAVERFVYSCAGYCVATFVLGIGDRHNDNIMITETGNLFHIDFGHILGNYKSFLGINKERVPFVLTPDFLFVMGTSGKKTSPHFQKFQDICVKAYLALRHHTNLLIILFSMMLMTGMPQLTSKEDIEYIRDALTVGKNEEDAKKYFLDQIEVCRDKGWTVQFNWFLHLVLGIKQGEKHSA

[5] = Lipophilicity, log D of compound by chromatographic method; type: physicochemical
PI3K p110 beta/p85 alpha = PI3K p110 beta/p85 alpha (Homo sapiens, UniProt P42338); assay: Inhibition of recombinant human N-terminal His6-tagged full length P110beta/full length untagged human p85alpha expressed in baculovirus infected Sf21 insect cells using PIP2 as substrate preincubated for 15 mins followed by substrate addition and measured after 60 mins by HTRF assay
Sequence of PI3K p110 beta/p85 alpha (P27986 whole entry): as the sequence (P27986 whole entry, canonical isoform) above
Sequence of PI3K p110 beta/p85 alpha (P42338 whole entry): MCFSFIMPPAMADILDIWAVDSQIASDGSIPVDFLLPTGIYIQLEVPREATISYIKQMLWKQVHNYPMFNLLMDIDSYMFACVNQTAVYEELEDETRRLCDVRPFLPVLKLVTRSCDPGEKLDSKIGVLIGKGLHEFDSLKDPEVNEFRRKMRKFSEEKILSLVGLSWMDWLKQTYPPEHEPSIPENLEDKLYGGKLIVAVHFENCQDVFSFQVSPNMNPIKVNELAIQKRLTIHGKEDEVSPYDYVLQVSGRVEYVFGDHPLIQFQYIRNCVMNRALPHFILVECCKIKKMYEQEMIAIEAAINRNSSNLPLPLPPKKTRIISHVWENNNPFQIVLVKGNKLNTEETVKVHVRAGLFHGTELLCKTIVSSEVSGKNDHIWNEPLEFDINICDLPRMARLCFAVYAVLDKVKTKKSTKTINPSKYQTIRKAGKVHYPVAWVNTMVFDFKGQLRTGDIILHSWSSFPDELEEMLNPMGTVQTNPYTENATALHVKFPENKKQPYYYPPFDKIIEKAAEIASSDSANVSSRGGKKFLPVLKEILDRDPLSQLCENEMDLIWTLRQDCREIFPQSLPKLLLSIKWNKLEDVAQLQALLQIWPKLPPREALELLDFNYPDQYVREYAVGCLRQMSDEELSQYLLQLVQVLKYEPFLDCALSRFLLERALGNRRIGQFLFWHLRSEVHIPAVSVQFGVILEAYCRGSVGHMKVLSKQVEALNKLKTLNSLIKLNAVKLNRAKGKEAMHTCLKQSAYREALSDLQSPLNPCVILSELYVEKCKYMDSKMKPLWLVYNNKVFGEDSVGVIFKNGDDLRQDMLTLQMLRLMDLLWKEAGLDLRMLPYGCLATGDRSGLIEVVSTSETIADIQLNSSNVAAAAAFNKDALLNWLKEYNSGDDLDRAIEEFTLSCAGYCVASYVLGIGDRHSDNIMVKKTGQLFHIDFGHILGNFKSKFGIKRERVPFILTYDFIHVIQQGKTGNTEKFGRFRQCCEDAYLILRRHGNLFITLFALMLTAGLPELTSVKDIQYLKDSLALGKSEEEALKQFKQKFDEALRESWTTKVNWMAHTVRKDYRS

in vitro = details: human, pooled liver microsomes
Description: Intrinsic clearance in pooled human liver microsomes at 0.5 uM measured up to 45 mins in presence of NADPH by LC-MS/MS analysis

[6] = biological target: PI3-kinase p110-delta/p85-alpha (Homo sapiens, UniProt O00329); assay: Inhibition of recombinant human N-terminal His6-tagged full length P110delta/full length untagged human p85alpha expressed in baculovirus infected Sf21 insect cells using PIP2 as substrate preincubated for 15 mins followed by substrate addition and measured after 60 mins by HTRF assay
Sequence of PI3-kinase p110-delta/p85-alpha (P27986 whole entry, one chain of several): as the sequence (P27986 whole entry, canonical isoform) above

serum albumin = serum albumin (Homo sapiens, UniProt P02768); assay: Binding affinity to human serum albumin by HPLC analysis; type: ADME, cell-free; details: read-out: PB (converted)
Sequence of serum albumin (P02768 whole entry): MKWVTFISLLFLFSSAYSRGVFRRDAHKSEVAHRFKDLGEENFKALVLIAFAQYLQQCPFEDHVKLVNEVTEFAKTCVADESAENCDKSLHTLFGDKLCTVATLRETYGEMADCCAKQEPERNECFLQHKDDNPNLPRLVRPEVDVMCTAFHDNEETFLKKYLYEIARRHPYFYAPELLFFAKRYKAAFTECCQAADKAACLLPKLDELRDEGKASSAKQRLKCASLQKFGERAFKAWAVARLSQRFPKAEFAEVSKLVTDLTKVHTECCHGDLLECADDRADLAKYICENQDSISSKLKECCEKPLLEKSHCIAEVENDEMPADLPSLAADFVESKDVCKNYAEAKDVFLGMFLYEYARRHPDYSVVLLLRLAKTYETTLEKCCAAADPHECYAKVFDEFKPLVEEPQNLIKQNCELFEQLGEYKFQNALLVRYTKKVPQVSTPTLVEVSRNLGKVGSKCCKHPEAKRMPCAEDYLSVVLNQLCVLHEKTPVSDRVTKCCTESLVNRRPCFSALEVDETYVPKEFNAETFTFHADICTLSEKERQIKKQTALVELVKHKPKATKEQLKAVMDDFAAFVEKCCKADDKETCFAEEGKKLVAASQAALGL

Homo sapiens = organism: Homo sapiens; assay: Selectivity ratio of IC50 for inhibition of recombinant human N-terminal His6-tagged full length P110delta/full length untagged human p85alpha expressed in baculovirus infected Sf21 insect cells to IC50 for inhibition of PI3Kdelta in human whole blood
[7] = Clearance in Wistar Han rat at 1 mg/kg, iv administered as infusion for 1 hr by RP LC-MS/MS analysis; type: ADME, organism-based; details: in vivo
[8] = Half life in Wistar Han rat at 1 mg/kg, iv administered as infusion for 1 hr by RP LC-MS/MS analysis; type: ADME, organism-based; details: in vivo
[9] = Volume of distribution at steady state in Wistar Han rat at 1 mg/kg, iv administered as infusion for 1 hr by RP LC-MS/MS analysis; type: ADME, organism-based; details: in vivo, read-out: Vdss

Structure (SMILES)	CLint scaled at 0.5 µM [1]	IC50 [2]	IC50 [3]	IC50 [4]	chromatographic logD [5]	IC50 (PI3K p110 beta/p85 alpha)	CLint scaled at 0.75 h, 0.5 µM (in vitro)	IC50 [6]	Ki [6]	fraction unbound (serum albumin)	Ratio IC50 (Homo sapiens)	clearance [7]	half-life [8]	Vd [9]	pIC50 ([4]; sf21)
COc1ncc(N2CCOCC2)cc1S(=O)(=O)Nc1ccnc(-c2ccc(CN3CCN(C(C)C)CC3)c(F)c2)c1	< 0.0276 L/h/kg	1580 nM	3.16 nM	3980 nM	1.8	7940 nM	< 0.024 L/h/kg	1.58 nM	0.0501 nM						
COc1ncc(C2=CCOCC2)cc1S(=O)(=O)Nc1cncc(-c2ccc(CN3CCN(C(C)C)CC3)cc2)c1	0.0366 L/h/kg	398 nM	12.6 nM	2510 nM	2.9	794 nM	0.137 L/h/kg	0.316 nM	0.01 nM						
COc1ncc(C2=CCOCC2)cc1S(=O)(=O)Nc1ccnc(C)c1		3980 nM	316 nM	3980 nM		316 nM		31.6 nM		0.21	10				
COc1ncc(N2CCOCC2)cc1S(=O)(=O)Nc1ccnc(-c2ccc(CN3CCN(C(C)C)CC3)cc2)c1	< 0.0276 L/h/kg	2510 nM	12.6 nM	5010 nM	1.4	10000 nM	< 0.024 L/h/kg	1.26 nM	0.0398 nM						
COc1ncc(C2=CCOCC2)cc1S(=O)(=O)Nc1cncc(-c2ccc(CN3CCN(C(C)C)CC3)nc2)c1	< 0.0276 L/h/kg	1260 nM	31.6 nM	5010 nM	1.8	3980 nM	0.0258 L/h/kg	1.26 nM	0.0251 nM						
COc1ncc(C2=CCOCC2)cc1S(=O)(=O)Nc1cncc(-c2cccc(CN3CCCCC3)c2)c1	0.239 L/h/kg	5010 nM	79.4 nM	6310 nM	3.5	1260 nM	0.113 L/h/kg	5.01 nM							
COc1ncc(N2CCOCC2)cc1S(=O)(=O)Nc1cncc(-c2ccc(CN3CCCC3)c(F)c2)c1	< 0.0276 L/h/kg	3980 nM	63.1 nM	10000 nM	2.2	2510 nM	< 0.024 L/h/kg	12.6 nM							
COc1ncc(C2=CCOCC2)cc1S(=O)(=O)Nc1cncc(-c2ccc(CN3CCN(C)CC3)cc2)c1	0.0576 L/h/kg	251 nM	39.8 nM	3160 nM	2.3	501 nM	0.0984 L/h/kg	3.16 nM							
COc1ncc(N2CCOCC2)cc1S(=O)(=O)Nc1cncc(-c2ccc(CN3CCCC3)cc2F)c1	< 0.0276 L/h/kg	1000 nM	20 nM	2510 nM	2.4	1580 nM	< 0.024 L/h/kg	3.16 nM				0.528 L/h/kg	31.8 min	0.6 L/kg	
COc1ncc(C2=CCOCC2)cc1S(=O)(=O)Nc1cncc(-c2ccc(CN3C[C@@H](C)O[C@@H](C)C3)cc2)c1	1.14 L/h/kg	1000 nM	25.1 nM	794 nM	5.3	631 nM	0.772 L/h/kg	0.398 nM	0.01 nM						
COc1ncc(C2=CCOCC2)cc1S(=O)(=O)Nc1cncc(-c2ccc(CN(C)C)cc2)c1	0.0396 L/h/kg	5010 nM	79.4 nM	10000 nM	2	1000 nM	< 0.024 L/h/kg	7.94 nM							
COc1ncc(C2=CCOCC2)cc1S(=O)(=O)Nc1cncc(-c2ccc(CN3C[C@@H](C)N(C)[C@@H](C)C3)cc2)c1	0.0522 L/h/kg	316 nM	1.26 nM	5010 nM	3.1	2510 nM	0.182 L/h/kg	0.501 nM	0.0158 nM						
COc1ncc(C2=CCOCC2)cc1S(=O)(=O)Nc1cncc(-c2ccc(CN3CCNCC3)cc2)c1	0.191 L/h/kg	3160 nM	12.6 nM	7940 nM	3.3	794 nM	0.133 L/h/kg	3.16 nM	0.126 nM						
COc1ncc(N2CCOCC2)cc1S(=O)(=O)Nc1cncc(-c2ccc(CN3CCN(C(C)C)CC3)cc2)c1	< 0.0276 L/h/kg	1260 nM	20 nM	7940 nM	2.3	2510 nM	0.0426 L/h/kg	2.51 nM	0.0794 nM						
COc1ncc(N2CCOCC2)cc1S(=O)(=O)Nc1ccnc(-c2ccc(CN3C[C@@H](C)O[C@@H](C)C3)cc2F)c1	0.0354 L/h/kg	1260 nM	7.94 nM	251 nM	3.9	1580 nM	0.0522 L/h/kg	1 nM	0.0316 nM						
COc1ncc(N2CCOCC2)cc1S(=O)(=O)Nc1cncc(C#CCN2CCN(C(C)C)CC2)c1	< 0.0276 L/h/kg	20000 nM	158 nM		1.6	15800 nM	< 0.024 L/h/kg	31.6 nM							> 4.5
COc1ncc(C2=CCOCC2)cc1S(=O)(=O)Nc1cncc(C)c1		3160 nM	3980 nM	5010 nM		398 nM		20 nM		0.09	100				
COc1ncc(C2=CCOCC2)cc1S(=O)(=O)Nc1cncc(-c2ccc(CN3CCCC3)cc2)c1	0.0528 L/h/kg	5010 nM	31.6 nM	10000 nM	2.2	631 nM	0.0432 L/h/kg	5.01 nM							
COc1ncc(C2=CCOCC2)cc1S(=O)(=O)Nc1cncc(-c2cccc(CN3CCCC3)c2)c1	0.066 L/h/kg	5010 nM	200 nM	3980 nM	2.4	794 nM	0.0426 L/h/kg	6.31 nM							
